Measurements as given in US20260091026A1, “METHODS OF TREATING INFLAMMATORY DISEASES” (INTERLINE THERAPEUTICS, INC., priority 2023, published 2026).
pIC50: −log10 of the molar value. Like-named read-outs stand apart in the source and are kept apart here.

Experiments:
[1] = test system: THP1-Dual cells, NF-κB pathway (SEAP); test: THP-1 Dual cell SEAP assay (L18-MDP stimulated); assay type: cell-based; conditions: 10 ng/mL L18-MDP, 20-24 h, SEAP readout, read-out: IFNγ THP1 IC50
Experimental: THP1-Dual™ cells (InvivoGen Cat #thpd-nfis) allow simultaneous assessment of the NF-κB pathway, by monitoring the activity of secreted embryonic alkaline phosphatase (SEAP) as well as the IRF pathway, by assessing the activity of a secreted luciferase (Lucia). Cells were cultured according to manufacturers' recommendations. For the assay, cell concentration was adjusted to 7.14×10^5 cells/mL in assay media (RPMI 1640, 2 mM L-Glutamine, 25 mM HEPES, 10% fetal bovine serum (heat-inactivated for 30 min at 56° C.), Pen-Strep (100 U/mL)) and 35 μL of cell suspension (˜25,000 cells) per well were added to a flat bottom 384-well plate (white opaque). Plate was centrifuged at 300 g for 2 min, compounds were added in serial dilution series according to the plate layout (volumes ˜500 nL-0.0152 nL) and plate was incubated at 37° C. in 5% CO2 for 30 min. Using assay media, a L18-MDP stock solution, that results in a final concentration of 10 ng/mL L18-MDP in each well when adding 15 μL to each well, was prepared. 15 μL of L18-MDP stock solution was added to each well, while 15 μL of assay media was added to the negative control wells. Plates were subsequently incubated at 37° C. in 5% CO2 overnight (20-24 h).
For the SEAP assay: without disturbing the cells at the bottom of the well, 15 μL supernatant was transferred to a clear 384-well flat bottom plate and 35 μL QUANTI-Blue Solution per well was added. Following a 2 h incubation at 37° C., the optical density (OD) was measured at 620-655 nm using a microplate reader (PheraStar FS microplate reader with protocol for OD 620-655 nm).
Values of media-only wells were subtracted and % inhibition for each compound concentration relative to the DMSO/L18-MDP-treated controls was calculated. Inhibition values+/−SD were fitted by non-linear regression using Prism software (GraphPad PRISM Software) to calculate IC50 values.

RIPK2 (KD)/XIAP (BIR2) = molecular target: T1, RIPK2 (KD)/XIAP (BIR2) (Homo sapiens, UniProt O43353); test: RIPK2-XIAP binding competition PPI assay (TR-FRET); conditions: for Emax / PPI Amax: 50 nM of GSK583 = -100% activity; for Emax: read-out: PPI Amax; for pIC50: GST-RIPK2 / His-XIAP (BIR2)-avi, 120 min at 23° C.
T1 construct: made in house; host or cells: baculovirus-infected Sf9 cells
Description: The ability of selected compounds of Formula (I) to inhibit the binding of an His-XIAP (BIR2)-avi fusion protein to a GST-RIPK2 fusion protein was quantified employing the TR-FRET-based competition assay as described in the following paragraphs.
Recombinant fusion protein of N-terminal Glutathione-S-Transferase (GST) and a fragment of human RIPK2 (amino acids 1-310 of accession number 043353), expressed in baculovirus infected Sf9 cells, purified via glutathione affinity chromatography, was used as GST-RIPK2 fusion protein. Recombinant fusion protein of N-terminal 6xHistidine (His), a fragment of human XIAP (amino acids 152-231 of accession number P98170), and C-terminal avi tag, expressed in baculovirus infected Sf9 cells, purified via Nickel NTA affinity chromatography, was used as the His-XIAP (BIR2)-avi fusion protein.
For the assay, a working solution of 1 nM GST-RIPK2, 25 nM His-XIAP (BIR2)-avi, 6 nM Anti-His-XL665 […] (Revvity Catalogue No. 61HISXLB), and 0.5 nM Anti-GST-Tb(Revvity Catalogue No. 61GSTTLB) in 25 mM Tris-HCl 7.5, 0.5 mM ethylene glycol-bis(2-aminoethylether)-N,N,N′,N′-tetraacetic acid (EGTA), 10 mM magnesium chloride (MgCl2), 2.5 mM dithiothreitol (DTT), 0.01% (w/v) bovine serum albumin (BSA), 0.005% (w/v) Pluronic F-127 (Sigma), 0.5 mM sodium ortho-vanadate, 5 mM-Glycerophosphate disodium salt hydrate (BGP) was prepared. 50 nL of a 100-fold concentrated solution of each test compound in DMSO was dispensed via acoustic dispensing into a white low volume 384-well microtiter plate (Perkin Elmer Catalogue No. 6008280). Subsequently, 5 μL of the assay working solution were added.
The resulting mixture was incubated 120 min at 23° C. Subsequently, the amount of complex formed by the GST-RIPK2, XIAP (BIR2)-avi, Anti-His-XL665, and Anti-GST-Tb was evaluated by measurement of the resonance energy transfer from the Tb-cryptate to the XL665. Therefore, the fluorescence emissions at 520 nm and 665 nm after excitation at 337 nm were measured in a TR-FRET reader, e.g. a Pherastar FS(BMG Labtechnologies, Offenburg, Germany) or an Envision (PerkinElmer). The ratio of the emissions at 665 nm and at 520 nm was taken as the measure of the amount of the complex. The data were normalized (assay reaction without inhibitor=0% activity, 50 nM of GSK583=−100% activity).

T1 sequence (O43353 1-310): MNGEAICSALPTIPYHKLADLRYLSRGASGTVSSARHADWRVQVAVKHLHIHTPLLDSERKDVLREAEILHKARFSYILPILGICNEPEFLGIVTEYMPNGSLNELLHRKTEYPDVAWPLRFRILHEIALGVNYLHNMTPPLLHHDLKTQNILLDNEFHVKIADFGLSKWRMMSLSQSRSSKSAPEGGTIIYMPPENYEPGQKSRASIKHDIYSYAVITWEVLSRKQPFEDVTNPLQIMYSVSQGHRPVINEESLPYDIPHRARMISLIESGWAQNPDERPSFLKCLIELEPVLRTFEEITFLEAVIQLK

COc1cc2ncc(-c3cc(C(=O)N[C@@H]4C[C@@H]4c4ccccc4)n(C)n3)n2cc1S(=O)(=O)C(C)(C)C (single isomer, unassigned) [Example 30, cis-(1S,2S) or (1R,2R) 3-(6-(tert-butylsulfonyl)-7-methoxyimidazo[1,2-a]pyridin-3-yl)-1-methyl-N-(2-phenylcyclopropyl)-1H-pyrazole-5-carboxamide] was tested, and the pIC50 ([1]; Homo sapiens) was < 5.60, the Emax (RIPK2 (KD)/XIAP (BIR2)) was 30 to 55% and the pIC50 (RIPK2 (KD)/XIAP (BIR2)) was < 6.00.

COc1cc2ncc(-c3cc(C(=O)N[C@@H]4C[C@@H]4c4ccccc4)n(C)n3)n2cc1S(=O)(=O)C(C)(C)C (single isomer, unassigned) [Example 31, cis-(1R,2R) or (1S,2S) 3-(6-(tert-butylsulfonyl)-7-methoxyimidazo[1,2-a]pyridin-3-yl)-1-methyl-N-(2-phenylcyclopropyl)-1H-pyrazole-5-carboxamide] was tested, and the pIC50 [1] was < 5.60, the “PPI Amax” value (RIPK2 (KD)/XIAP (BIR2)) was “D (Amax of ≤30%)” and the pIC50 (RIPK2 (KD)/XIAP (BIR2)) was < 6.00.

COc1cc2ncc(-c3cc(C(=O)N[C@@H]4C[C@H]4c4ccccc4)n(C)n3)n2cc1S(=O)(=O)C(C)(C)C (single isomer, unassigned) [Example 33, trans-(1R,2S) or (1S,2R) 3-(6-(tert-butylsulfonyl)-7-methoxyimidazo[1,2-a]pyridin-3-yl)-1-methyl-N-(2-phenylcyclopropyl)-1H-pyrazole-5-carboxamide] was tested, and the pIC50 ([1]; Homo sapiens) was < 5.60, the Emax (RIPK2 (KD)/XIAP (BIR2)) was ≥ 80% and the pIC50 (RIPK2 (KD)/XIAP (BIR2)) was 6.00 to 7.00.

For COc1cc2ncc(-c3cc(C(=O)N[C@@H]4C[C@H]4c4ccccc4)n(C)n3)n2cc1S(=O)(=O)C(C)(C)C (single isomer, unassigned) [Example 34, trans-(1S,2R) or (1R,2S) 3-(6-(tert-butylsulfonyl)-7-methoxyimidazo[1,2-a]pyridin-3-yl)-1-methyl-N-(2-phenylcyclopropyl)-1H-pyrazole-5-carboxamide], the pIC50 [1] was < 5.60, the “PPI Amax” value (RIPK2 (KD)/XIAP (BIR2)) was “A (Amax of ≥80%)” and the pIC50 (RIPK2 (KD)/XIAP (BIR2)) was < 6.00.

For COc1cc2ncc(-c3cc(C(=O)Nc4ccccc4)n(C)n3)n2cc1S(=O)(=O)C(C)(C)C [Example 7, 3-(6-(tert-butylsulfonyl)-7-methoxyimidazo[1,2-a]pyridin-3-yl)-1-methyl-N-phenyl-1H-pyrazole-5-carboxamide], the pIC50 ([1]; Homo sapiens) was < 5.60, the Emax (RIPK2 (KD)/XIAP (BIR2)) was ≥ 80% and the pIC50 (RIPK2 (KD)/XIAP (BIR2)) was < 6.00.

COc1cc2ncc(-c3cc(C(=O)N[C@@H](C)c4ccccc4)n(C)n3)n2cc1S(=O)(=O)C(C)(C)C [Example 8, (S)-3-(6-(tert-butylsulfonyl)-7-methoxyimidazo[1,2-a]pyridin-3-yl)-1-methyl-N-(1-phenylethyl)-1H-pyrazole-5-carboxamide] was tested, and the pIC50 ([1]; Homo sapiens) was < 5.60, the Emax (RIPK2 (KD)/XIAP (BIR2)) was ≥ 80% and the pIC50 (RIPK2 (KD)/XIAP (BIR2)) was < 6.00.

With COc1cc2ncc(-c3cc(C(=O)N[C@H](C)c4ccccc4)n(C)n3)n2cc1S(=O)(=O)C(C)(C)C [Example 9, (R)-3-(6-(tert-butylsulfonyl)-7-methoxyimidazo[1,2-a]pyridin-3-yl)-1-methyl-N-(1-phenylethyl)-1H-pyrazole-5-carboxamide] the pIC50 ([1]; Homo sapiens) was > 7.00, the Emax (RIPK2 (KD)/XIAP (BIR2)) was ≥ 80% and the pIC50 (RIPK2 (KD)/XIAP (BIR2)) was 7.00 to 8.00.

COc1cc2ncc(-c3cc(C(=O)N[C@H](C)c4ccccc4F)n(C)n3)n2cc1S(=O)(=O)C(C)(C)C [Example 10, (R)-3-(6-(tert-butylsulfonyl)-7-methoxyimidazo[1,2-a]pyridin-3-yl)-N-(1-(2-fluorophenyl)ethyl)-1-methyl-1H-pyrazole-5-carboxamide] was tested, and the pIC50 ([1]; Homo sapiens) was 6.30 to 7.00, the Emax (RIPK2 (KD)/XIAP (BIR2)) was ≥ 80% and the pIC50 (RIPK2 (KD)/XIAP (BIR2)) was 7.00 to 8.00.

With COc1cc2ncc(-c3cc(C(=O)N[C@H](CO)c4ccccc4)n(C)n3)n2cc1S(=O)(=O)C(C)(C)C [Example 11, (S)-3-(6-(tert-butylsulfonyl)-7-methoxyimidazo[1,2-a]pyridin-3-yl)-N-(2-hydroxy-1-phenylethyl)-1-methyl-1H-pyrazole-5-carboxamide] the pIC50 ([1]; Homo sapiens) was < 5.60, the Emax (RIPK2 (KD)/XIAP (BIR2)) was ≤ 30% and the pIC50 (RIPK2 (KD)/XIAP (BIR2)) was < 6.00.

In the case of COc1cc2ncc(-c3cc(C(=O)N[C@H](C)c4ccc(F)cc4)n(C)n3)n2cc1S(=O)(=O)C(C)(C)C [Example 12, (R)-3-(6-(tert-butylsulfonyl)-7-methoxyimidazo[1,2-a]pyridin-3-yl)-N-(1-(4-fluorophenyl)ethyl)-1-methyl-1H-pyrazole-5-carboxamide], the pIC50 ([1]; Homo sapiens) was 5.60 to 6.30, the Emax (RIPK2 (KD)/XIAP (BIR2)) was ≥ 80% and the pIC50 (RIPK2 (KD)/XIAP (BIR2)) was 6.00 to 7.00.

COc1cc2ncc(-c3cc(C(=O)N[C@H](C)c4cccc(F)c4)n(C)n3)n2cc1S(=O)(=O)C(C)(C)C [Example 13, (R)-3-(6-(tert-butylsulfonyl)-7-methoxyimidazo[1,2-a]pyridin-3-yl)-N-(1-(3-fluorophenyl)ethyl)-1-methyl-1H-pyrazole-5-carboxamide] was tested, and the pIC50 ([1]; Homo sapiens) was < 5.60, the Emax (RIPK2 (KD)/XIAP (BIR2)) was ≥ 80% and the pIC50 (RIPK2 (KD)/XIAP (BIR2)) was 6.00 to 7.00.

With COc1cc2ncc(-c3cc(C(=O)NCc4n[nH]c5ccccc45)n(C)n3)n2cc1S(=O)(=O)C(C)(C)C [Example 14, N-((1H-indazol-3-yl)methyl)-3-(6-(tert-butylsulfonyl)-7-methoxyimidazo[1,2-a]pyridin-3-yl)-1-methyl-1H-pyrazole-5-carboxamide] the pIC50 ([1]; Homo sapiens) was 6.30 to 7.00, the Emax (RIPK2 (KD)/XIAP (BIR2)) was ≥ 80% and the pIC50 (RIPK2 (KD)/XIAP (BIR2)) was > 8.00.

COc1cc2ncc(-c3cc(C(=O)NCc4nn(C)c5ccccc45)n(C)n3)n2cc1S(=O)(=O)C(C)(C)C [Example 15, 3-(6-(tert-butylsulfonyl)-7-methoxyimidazo[1,2-a]pyridin-3-yl)-1-methyl-N-((1-methyl-1H-indazol-3-yl)methyl)-1H-pyrazole-5-carboxamide] was tested, and the pIC50 ([1]; Homo sapiens) was < 5.60, the Emax (RIPK2 (KD)/XIAP (BIR2)) was 55 to 80% and the pIC50 (RIPK2 (KD)/XIAP (BIR2)) was 6.00 to 7.00.

With COc1cc2ncc(-c3cc(C(=O)NCc4c5ccccc5nn4C)n(C)n3)n2cc1S(=O)(=O)C(C)(C)C [Example 16, 3-(6-(tert-butylsulfonyl)-7-methoxyimidazo[1,2-a]pyridin-3-yl)-1-methyl-N-((2-methyl-2H-indazol-3-yl)methyl)-1H-pyrazole-5-carboxamide] the pIC50 ([1]; Homo sapiens) was < 5.60, the Emax (RIPK2 (KD)/XIAP (BIR2)) was 55 to 80% and the pIC50 (RIPK2 (KD)/XIAP (BIR2)) was < 6.00.

For COc1cc2ncc(-c3cc(C(=O)NCc4cnn5ccccc45)n(C)n3)n2cc1S(=O)(=O)C(C)(C)C [Example 17, 3-(6-(tert-butylsulfonyl)-7-methoxyimidazo[1,2-a]pyridin-3-yl)-1-methyl-N-(pyrazolo[1,5-a]pyridin-3-ylmethyl)-1H-pyrazole-5-carboxamide], the pIC50 ([1]; Homo sapiens) was < 5.60, the Emax (RIPK2 (KD)/XIAP (BIR2)) was 55 to 80% and the pIC50 (RIPK2 (KD)/XIAP (BIR2)) was < 6.00.

In the case of COc1cc2ncc(-c3cc(C(=O)NCc4n[nH]c5cccnc45)n(C)n3)n2cc1S(=O)(=O)C(C)(C)C [Example 18, N-((1H-pyrazolo[4,3-b]pyridin-3-yl)methyl)-3-(6-(tert-butylsulfonyl)-7-methoxyimidazo[1,2-a]pyridin-3-yl)-1-methyl-1H-pyrazole-5-carboxamide], the pIC50 ([1]; Homo sapiens) was 5.60 to 6.30, the Emax (RIPK2 (KD)/XIAP (BIR2)) was ≥ 80% and the pIC50 (RIPK2 (KD)/XIAP (BIR2)) was 7.00 to 8.00.
